{"source": "paper PMC11904993", "about": "“Humanized Candida and NanoBiT Assays Expedite Discovery of Bdf1 Bromodomain Inhibitors With Antifungal Potential” (Advanced Science, 2025)", "key": {"[1]": {"target": "T1, CaBdf1 BD1 (Candida albicans, UniProt Q5A4W8)", "T1 construct": "BD1 (residues 193–327) and BD2 (residues 361–501) from CaBdf1 (Uniprot ID Q5A4W8); made in house; host or cells: E. coli BL21(DE3)", "T1 sequence (Q5A4W8 193-327)": "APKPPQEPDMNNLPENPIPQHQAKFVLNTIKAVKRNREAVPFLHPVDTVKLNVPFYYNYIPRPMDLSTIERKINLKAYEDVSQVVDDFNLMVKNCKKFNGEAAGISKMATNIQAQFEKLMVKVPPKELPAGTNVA", "experiment": "HTRF assay, inhibition of H4ac4 peptide binding", "set-up": "species or system C. albicans"}, "[2]": {"target": "T2, CaBdf1 BD2 (Candida albicans, UniProt Q5A4W8)", "T2 construct": "BD1 (residues 193–327) and BD2 (residues 361–501) from CaBdf1 (Uniprot ID Q5A4W8); made in house; host or cells: E. coli BL21(DE3)", "T2 sequence (Q5A4W8 361-501)": "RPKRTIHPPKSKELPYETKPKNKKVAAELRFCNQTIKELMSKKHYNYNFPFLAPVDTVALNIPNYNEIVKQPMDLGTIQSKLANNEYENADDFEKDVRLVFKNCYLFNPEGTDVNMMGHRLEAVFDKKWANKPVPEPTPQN", "experiment": "HTRF assay, inhibition of H4ac4 peptide binding", "set-up": "species or system C. albicans"}, "[3]": {"test_system": "C. glabrata expressing humanized Bdf1 (Brd4 BDs)", "experiment": "Growth inhibition in liquid media, humanized C. glabrata strains", "conditions": "for EC50: Nakaseomyces glabratus", "method": "Growth on Liquid Media with C. glabrata Lab Strains: Cells were grown at 30 °C in SC+M+C‐U medium (SC medium with 5 mM methionine, 0.25 mM cysteine, without uracil) to an OD600 of 0.5–0.8. […] Plates were incubated at 30 °C and OD600 was measured using a Multiskan FC Microplate Photometer (Thermo Fisher)."}, "[4]": {"target": "human Brd4 BD1 (Homo sapiens, UniProt O60885)", "experiment": "HTRF assay, inhibition of H4ac4 peptide binding", "conditions": "Brd4 BD1; 0.0537 nM"}, "[5]": {"conditions": "read-out: HTRF signal, normalized (Figure 5A data)"}}, "note": "Where “and” joins values, the source holds several entries; their conditions need not be identical. Equal entries are not always repeated. Where two headings read alike, the source gives them in different places."}
{"compound": "CC(=O)N1c2ccc(-c3ccc(C(=O)O)cc3)cc2C(Nc2ccc(Cl)cc2)CC1C", "note": "(stereo not drawn) [I-BET726]", "values": [{"measurement": "remaining activity at 0.0021 µM", "setting": "[1]; CaBD1, 2.10 nM, read-out: HTRF signal, normalized (Figure 5A data)", "result": 103, "unit": "%"}, {"measurement": "remaining activity at 0.01311 µM", "setting": "[1]; CaBD1, 13.11 nM, read-out: HTRF signal, normalized (Figure 5A data)", "result": 96, "unit": "%"}, {"measurement": "remaining activity at 0.03277 µM", "setting": "[1]; CaBD1, 32.77 nM, read-out: HTRF signal, normalized (Figure 5A data)", "result": 90.6, "unit": "%"}, {"measurement": "remaining activity at 0.08192 µM", "setting": "[1]; CaBD1, 81.92 nM, read-out: HTRF signal, normalized (Figure 5A data)", "result": 66.5, "unit": "%"}, {"measurement": "remaining activity at 0.2048 µM", "setting": "[1]; CaBD1, 204.8 nM, read-out: HTRF signal, normalized (Figure 5A data)", "result": 27, "unit": "%"}, {"measurement": "remaining activity at 0.512 µM", "setting": "[1]; CaBD1, 512 nM, read-out: HTRF signal, normalized (Figure 5A data)", "result": 5.16, "unit": "%"}, {"measurement": "IC50", "setting": "[1]; Fig 5A, four replicates, read-out: IC50 (μM) BD1, C. alb. Bdf1", "result": "0.27 ± 0.02", "unit": "µM"}, {"measurement": "remaining activity at 0.00524 µM", "setting": "[1]; [5]", "result": 103, "unit": "%"}, {"measurement": "remaining activity at 0.01311 µM", "setting": "[1]; [5]", "result": 99.9, "unit": "%"}, {"measurement": "remaining activity at 1.28 µM", "setting": "[1]; [5]", "result": 2.74, "unit": "%"}, {"measurement": "remaining activity at 3.2 µM", "setting": "[1]; [5]", "result": 1.61, "unit": "%"}, {"measurement": "remaining activity at 0.0021 µM", "setting": "[2]; CaBD2, 2.10 nM, read-out: HTRF signal, normalized (Figure 5A data)", "result": 108, "unit": "%"}, {"measurement": "remaining activity at 0.01311 µM", "setting": "[2]; CaBD2, 13.11 nM, read-out: HTRF signal, normalized (Figure 5A data)", "result": 98.4, "unit": "%"}, {"measurement": "remaining activity at 0.03277 µM", "setting": "[2]; CaBD2, 32.77 nM, read-out: HTRF signal, normalized (Figure 5A data)", "result": 95.1, "unit": "%"}, {"measurement": "remaining activity at 0.2048 µM", "setting": "[2]; CaBD2, 204.8 nM, read-out: HTRF signal, normalized (Figure 5A data)", "result": 61.4, "unit": "%"}, {"measurement": "remaining activity at 0.512 µM", "setting": "[2]; CaBD2, 512 nM, read-out: HTRF signal, normalized (Figure 5A data)", "result": 25.6, "unit": "%"}, {"measurement": "remaining activity at 1.28 µM", "setting": "[2]; CaBD2, 1280 nM, read-out: HTRF signal, normalized (Figure 5A data)", "result": 11.4, "unit": "%"}, {"measurement": "IC50", "setting": "[2]; Fig 5A, four replicates, read-out: IC50 (μM) BD2, C. alb. Bdf1", "result": "0.63 ± 0.05", "unit": "µM"}, {"measurement": "remaining activity at 0.00524 µM", "setting": "[2]; [5]", "result": 102, "unit": "%"}, {"measurement": "%Growth", "setting": "[3]; Fig 3E, 50 µM, BDF1-hBD1-flag, Exp 1-3", "result": "2.33% and 1.84% and 1.76%"}, {"measurement": "%Growth", "setting": "[3]; Fig 3E, 50 µM, BDF1-hBD2-flag, Exp 1-3", "result": "3.8% and 4.25% and 4%"}, {"measurement": "%Growth", "setting": "[3]; Fig 3E, 50 µM, humanized BDF1-flag, Exp 1-3", "result": "0.38% and 2.64% and 0.389%"}, {"measurement": "%Growth", "setting": "[3]; Fig 3F, BDF1-hBD1-flag, 0.0137 µM", "result": "90.66% and 83.58% and 76.59%"}, {"measurement": "%Growth", "setting": "[3]; Fig 3F, BDF1-hBD1-flag, 0.0412 µM", "result": "77.41% and 78.96% and 63.08%"}, {"measurement": "%Growth", "setting": "[3]; Fig 3F, BDF1-hBD1-flag, 0.1235 µM", "result": "61.07% and 68.69% and 57.31%"}, {"measurement": "%Growth", "setting": "[3]; Fig 3F, BDF1-hBD1-flag, 0.3704 µM", "result": "41.42% and 40.29% and 42%"}, {"measurement": "%Growth", "setting": "[3]; Fig 3F, BDF1-hBD1-flag, 1.1111 µM", "result": "16.57% and 19.25% and 16.52%"}, {"measurement": "%Growth", "setting": "[3]; Fig 3F, BDF1-hBD1-flag, 3.3333 µM", "result": "5.27% and 7.44% and 4.82%"}, {"measurement": "%Growth", "setting": "[3]; Fig 3F, BDF1-hBD2-flag, 0.0137 µM", "result": "47.68% and 58.64% and 43.37%"}, {"measurement": "%Growth", "setting": "[3]; Fig 3F, BDF1-hBD2-flag, 0.0412 µM", "result": "32.5% and 27.54% and 41.03%"}, {"measurement": "%Growth", "setting": "[3]; Fig 3F, BDF1-hBD2-flag, 0.1235 µM", "result": "16.07% and 15.16% and 20.65%"}, {"measurement": "%Growth", "setting": "[3]; Fig 3F, BDF1-hBD2-flag, 0.3704 µM", "result": "9.64% and 8.03% and 12.17%"}, {"measurement": "%Growth", "setting": "[3]; Fig 3F, BDF1-hBD2-flag, 1.1111 µM", "result": "6.25% and 6.02% and 7.12%"}, {"measurement": "%Growth", "setting": "[3]; Fig 3F, BDF1-hBD2-flag, 3.3333 µM", "result": "4.46% and 5.24% and 6.4%"}, {"measurement": "%Growth", "setting": "[3]; Fig 3F, humanized BDF1-flag, 0.0137 µM", "result": "42.92% and 50.6% and 44.95%"}, {"measurement": "%Growth", "setting": "[3]; Fig 3F, humanized BDF1-flag, 0.0412 µM", "result": "25.63% and 22.37% and 34.68%"}, {"measurement": "%Growth", "setting": "[3]; Fig 3F, humanized BDF1-flag, 0.1235 µM", "result": "13.13% and 10.59% and 17.61%"}, {"measurement": "%Growth", "setting": "[3]; Fig 3F, humanized BDF1-flag, 0.3704 µM", "result": "5.63% and 5.85% and 8.26%"}, {"measurement": "%Growth", "setting": "[3]; Fig 3F, humanized BDF1-flag, 1.1111 µM", "result": "2.92% and 3.13% and 4.77%"}, {"measurement": "%Growth", "setting": "[3]; Fig 3F, humanized BDF1-flag, 3.3333 µM", "result": "1.04% and 1.36% and 2.75%"}, {"measurement": "EC50", "setting": "[3]; read-out: EC50 (μM) growth inhibition, Fig 3F, strain bdf1-hBD1-FLAG", "result": "0.25 ± 0.03", "unit": "µM"}, {"measurement": "EC50", "setting": "[3]; read-out: EC50 (μM) growth inhibition, Fig 3F, strain bdf1-hBD2-FLAG", "result": "0.019 ± 0.002", "unit": "µM"}, {"measurement": "EC50", "setting": "[3]; read-out: EC50 (μM), C. glabrata (hum), Fig 5C, both BDs humanized", "result": "0.043 ± 0.024", "unit": "µM"}, {"measurement": "EC50", "setting": "[3]; read-out: EC50 growth inhibition, strain expressing humanized Bdf1", "result": 0.014, "unit": "µM"}, {"measurement": "HTRF signal, normalized (Figure 5A data)", "setting": "[4]", "result": "104.39 and 100.71 and 99.92 and 101.07"}]}
